Among the data in patent US20190002436A1, “RESPIRATORY SYNCYTIAL VIRUS INHIBITORS” (MEDIVIR AB, priority 2015, published 2019) are EC50 values, retold here.

Structures are written as SMILES.

The test system of one assay is RSV (Long). In words: RSV cytopathic effect (CPE)-based viral replication assay. In kind it is cell-based, respiratory syncytial virus (RSV). The note with it: HEp-2 cells infected with RSV Long at MOI 0.015; 3 days at 37° C.; cell viability by CellTiter-Glo luminescence; read-out: EC50 (nm). On the procedure:
Example A: RSV Cytopathic Effect
Compounds of the invention are initially tested in a cytopathic effect (CPE)-based viral replication assay using immortalized cells and a laboratory strain of RSV (Long). This assay evaluates the ability of a compound to inhibit viral replication.
Assay plates are prepared by seeding 2,500 HEp-2 cells (ATCC) per well of a 384-well black clear-bottom plate (Greiner Bio-One) in 20 μL of assay media (defined as DMEM supplemented with 2% heat-inactivated fetal bovine serum and 1% Penicillin/Streptomycin). Assay plates are incubated overnight at 37° C. in an incubator containing 5% CO2. The following day, a 10-point serial dilution of test compound is prepared in DMSO. Compounds are subsequently diluted with assay media and 20 μL of diluted compound (containing 1.5% DMSO) is transferred to an assay plate for evaluation of antiviral activity.
For the CPE assay, cells are infected at a Multiplicity of Infection (MOI) of 0.015 using 20 μL of RSV Long (ATCC) diluted in assay media. The DMSO concentration is constant throughout the assay plate, including the negative and positive controls. The assay plate is incubated for 3 days at 37° C. in an incubator containing 5% CO2. Cell viability is evaluated with the addition of 10 μL of CellTiter-Glo (ProMega). Luminescence is measured using an EnVision plate reader (Perkin Elmer). EC50 values are calculated using the raw data from the CPE assays.
A general note: Protection from cytopathic effect is a common read-out in antiviral testing.
A word on the EC50: it is the concentration that produces a half-maximal response. Consider `CS(=O)(=O)N1CC2(C1)C(=O)N(Cc1ncc3ccccc3c1CF)c1ccccc12` [Example 59], for which the EC50 was 5.7 nM.
The same measure, in the same setting: the result for `CS(=O)(=O)N1CCC2(CC1)C(=O)N(Cc1ncc3ccccc3c1C1CNC(=O)C1)c1cnccc12` (centres unmarked) [Example 2041] reads 5.8 nM.

Staying with this assay, now noted: human respiratory syncytial virus, HEp-2, 72 h, HEp-2 cells infected with RSV Long at MOI 0.015; 3 days at 37° C.; cell viability by CellTiter-Glo luminescence; read-out: EC50 (nm).
For the compound `COC(=O)N1CC2(C1)C(=O)N(Cc1ncc3ccccc3c1-c1ccc(C#N)nc1)c1ccccc12` [Example 44c, Methyl 1′-((4-(6-cyanopyridin-3-yl)isoquinolin-3-yl)methyl)-2′-oxospiro[azetidine-3,3′-indoline]-1-carboxylate], the EC50 was 2.8 nM.
Still for that read-out and setting: to `CC1(OC(=O)N2CC3(C2)C(=O)N(Cc2ncc4ccccc4c2-c2ccc(C#N)nc2)c2ccccc23)CC1` [Example 91b, 1-Methylcyclopropyl 1′-((4-(6-cyanopyridin-3-yl)isoquinolin-3-yl)methyl)-2′-oxospiro[azetidine-3,3′-indoline]-1-carboxylate] belongs 0.4 nM.
Still for that read-out and setting: to `Cc1noc(C)c1-c1c(CN2C(=O)C3(CCN(C(=O)C4(N)CC4)CC3)c3ccncc32)ncc2ccccc12` [Example 130c, 1-(1-Aminocyclopropanecarbonyl)-1′-((4-(3,5-dimethylisoxazol-4-yl)isoquinolin-3-yl)methyl)spiro[piperidine-4,3′-pyrrolo[2,3-c]pyridin]-2′(1′H)-one] belongs 1000 nM; to `O=c1n(Cc2ncc3ccccc3c2CCCCF)c2cnccc2n1C1CC1` [Example 57, 1-Cyclopropyl-3-((4-(4-fluorobutyl)isoquinolin-3-yl)methyl)-1H-imidazo[4,5-c]pyridin-2(3H)-one], 3.4 nM.
Same read-out and setting: the result for `COC(=O)N1CCC(n2c(=O)n(Cc3ncc4ccccc4c3CCCCO)c3cccc(Cl)c32)CC1` [Example 16, Methyl 4-(7-chloro-3-((4-(4-hydroxybutyl)isoquinolin-3-yl)methyl)-2-oxo-2,3-dihydro-1H-benzo[d]imidazol-1-yl)piperidine-1-carboxylate] reads 19 nM.
As for `NC1(NC(=O)N2CC3(C2)C(=O)N(Cc2ncc4ccccc4c2-c2cccnc2)c2ccccc23)CC1` [Example 155, N-(1-aminocyclopropyl)-2′-oxo-1′-((4-(pyridin-3-yl)isoquinolin-3-yl)methyl)spiro[azetidine-3,3′-indoline]-1-carboxamide], the EC50 came out at 2 nM.
The same measure, in the same setting: to `O=C(N1CC2(C1)C(=O)N(Cc1ncc3ccccc3c1-c1cccnc1)c1ccccc12)C(F)(F)F` [Example 128, 1′-((4-(Pyridin-3-yl)isoquinolin-3-yl)methyl)-1-(2,2,2-trifluoroacetyl)spiro[azetidine-3,3′-indolin]-2′-one] belongs 20 nM; to `O=c1n(Cc2ncc3ccccc3c2COCC(F)(F)F)c2cnccc2n1C1CC1` [Example 127, 1-Cyclopropyl-3-((4-((2,2,2-trifluoroethoxy)methyl)isoquinolin-3-yl)methyl)-1H-imidazo[4,5-c]pyridin-2(3H)-one], 690 nM; to `N[C@H]1CCN(c2ccc3c(CCCCO)c(Cn4c(=O)n(C5CC5)c5ccncc54)ncc3c2)C1` [Example 33, (S)-3-((7-(3-aminopyrrolidin-1-yl)-4-(4-hydroxybutyl)isoquinolin-3-yl)methyl)-1-cyclopropyl-1H-imidazo[4,5-c]pyridin-2(3H)-one], 1300 nM.
Still for that read-out and setting: to `CS(=O)(=O)N1CCC2(CC1)C(=O)N(Cc1ncc3ccccc3c1-c1cc[nH]c1)c1cnccc12` [Example 2023] belongs 43 nM; to `CS(=O)(=O)N1CCC2(CC1)C(=O)N(Cc1ncc3cc(Cl)ccc3c1-c1ccncc1)c1cnccc12` [Example 2009], 0.35 nM; to `O=c1n(Cc2ncc3ccccc3c2CCCCO)c2cnccc2n1C1CC1` [Example 1c, 1-cyclopropyl-3-((4-(4-hydroxybutyl)isoquinolin-3-yl)methyl)-1H-imidazo[4,5-c]pyridin-2(3H)-one], 13 nM.
On to `COCCN1CC2(C1)C(=O)N(Cc1ncc3ccccc3c1-c1ccc(F)nc1)c1ccccc12` [Example 85c, 1′-((4-(6-Fluoropyridin-3-yl)isoquinolin-3-yl)methyl)-1-(2-methoxyethyl)spiro[azetidine-3,3′-indolin]-2′-one], for which the EC50 was 42 nM.
On the same count and under the same terms, to `COC(=O)C1CC2(C1)C(=O)N(Cc1ncc3ccccc3c1-c1ccc(C3(N)CC3)nc1)c1cnccc12` (centres unmarked) [Example 2002] belongs 5.4 nM.
Still for that read-out and setting: to `CS(=O)(=O)N1CCC2(CC1)C(=O)N(Cc1ncc3cc(Cl)ccc3c1-c1cccnc1)c1cnccc12` [Example 160c, 1′-((7-chloro-4-(pyridin-3-yl)isoquinolin-3-yl)methyl)-1-(methylsulfonyl)spiro[piperidine-4,3′-pyrrolo[2,3-c]pyridin]-2′(1′H)-one] belongs 1.3 nM; to `O=c1n(Cc2ncc3cc(F)ccc3c2CCCCO)c2cnccc2n1C1CC1` [Example 6g, 1-cyclopropyl-3-((7-fluoro-4-(4-hydroxybutyl)isoquinolin-3-yl)methyl)-1H-imidazo[4,5-c]pyridin-2(3H)-one], 41 nM; to `CS(=O)(=O)N1CCC2(CC1)C(=O)N(Cc1ncc3cc(F)ccc3c1-c1cccnc1)c1cnccc12` [Example 2034], 2.6 nM.
Still for that read-out and setting: the result for `NC1(C(=O)N2CCC3(CC2)C(=O)N(Cc2ncc4ccccc4c2-c2nccs2)c2cnccc23)CC1` [Example 2012] reads 380 nM.
Turning to `CS(=O)(=O)N1CCC2(CC1)C(=O)N(Cc1ncc3ccccc3c1-c1ccc(C(N)C(F)(F)F)nc1)c1cnccc12` (centres unmarked) [Example 158c, 1′-((4-(6-(1-amino-2,2,2-trifluoroethyl)pyridin-3-yl)isoquinolin-3-yl)methyl)-1-(methylsulfonyl)spiro[piperidine-4,3′-pyrrolo[2,3-c]pyridin]-2′(1′H)-one], the EC50 was determined as 3 nM.
Still for that read-out and setting: to `CS(=O)(=O)N1CC2(C1)C(=O)N(Cc1ncc3cc(Cl)ccc3c1-c1cccnc1)c1cnccc12` [Example 162, 1′-((7-chloro-4-(pyridin-3-yl)isoquinolin-3-yl)methyl)-1-(methylsulfonyl)spiro[azetidine-3,3′-pyrrolo[2,3-c]pyridin]-2′(1′H)-one] belongs 4.8 nM; to `NCC(=O)N1CCC2(CC1)C(=O)N(Cc1ncc3ccccc3c1-c1cccnc1)c1cnccc12` [Example 143, 1-(2-aminoacetyl)-1′-((4-(pyridin-3-yl)isoquinolin-3-yl)methyl)spiro[piperidine-4,3′-pyrrolo[2,3-c]pyridin]-2′(1′H)-one], 10 nM.
The same measure, in the same setting: the result for `NC1(C(=O)N2CCC3(CC2)C(=O)N(Cc2ncc4ccccc4c2-c2cncs2)c2cnccc23)CC1` [Example 2024] reads 8.2 nM; that for `NC1(C(=O)N2CCC3(CC2)C(=O)N(Cc2ncc4ccccc4c2-c2cnc(C(F)(F)F)s2)c2cnccc23)CC1` [Example 2028], 13 nM; that for `CNC(=O)N1CC2(C1)C(=O)N(Cc1ncc3ccccc3c1CCCCO)c1ccccc12` [Example 38, 1′-((4-(4-hydroxybutyl)isoquinolin-3-yl)methyl)-N-methyl-2′-oxospiro[azetidine-3,3′-indoline]-1-carboxamide], 6.4 nM.
Same read-out and setting: to `NC1(C(=O)N2CCC3(CC2)C(=O)N(Cc2ncc4ccccc4c2-c2ccc(S(N)(=O)=O)cc2)c2cnccc23)CC1` [Example 2015] belongs 3.9 nM; to `NC1(C(=O)N2CC3(C2)C(=O)N(Cc2ncc4ccccc4c2-c2cncc(F)c2)c2ccccc23)CC1` [Example 94, 1-(1-aminocyclopropanecarbonyl)-1′-((4-(5-fluoropyridin-3-yl)isoquinolin-3-yl)methyl)spiro[azetidine-3,3′-indolin]-2′-one], 20 nM; to `COC(=O)N1CC2(C1)C(=O)N(Cc1ncc3ccccc3c1-c1ccc(F)nc1F)c1ccccc12` [Example 96, Methyl 1′-((4-(2,6-difluoropyridin-3-yl)isoquinolin-3-yl)methyl)-2′-oxospiro[azetidine-3,3′-indoline]-1-carboxylate], 2.2 nM.
In the case of `CN(C)C1(C(=O)N2CC3(C2)C(=O)N(Cc2ncc4ccccc4c2-c2ccc(C#N)nc2)c2ccccc23)CC1` [Example 62, 5-(3-((1-(1-(dimethylamino)cyclopropanecarbonyl)-2′-oxospiro[azetidine-3,3′-indolin]-1′-yl)methyl)isoquinolin-4-yl)picolinonitrile], the EC50 was determined as 10 nM.

Still in this assay, the particulars now being: human respiratory syncytial virus, HEp-2, 72 h, read-out: EC50 (nm).
Consider `CNC(=O)OC1CC2(C1)C(=O)N(Cc1ncc3ccccc3c1-c1ccc(C#N)nc1)c1ccccc12` (centres unmarked) [Example 89, 1′-((4-(6-Cyanopyridin-3-yl)isoquinolin-3-yl)methyl)-2′-oxospiro[cyclobutane-1,3′-indolin]-3-yl methylcarbamate], for which the EC50 is 5.8 nM.
The same measure, in the same setting: the result for `COC(=O)N1CCC2(CC1)C(=O)N(Cc1ncc3ccccc3c1-c1ccc(C#N)nc1)c1cnccc12` [Example 13, Methyl 1′-((4-(6-cyanopyridin-3-yl)isoquinolin-3-yl)methyl)-2′-oxo-1′,2′-dihydrospiro[piperidine-4,3′-pyrrolo[2,3-c]pyridine]-1-carboxylate] reads 3 nM.
